Source: US8232406B2, “c-MET protein kinase inhibitors” (Vertex Pharmaceuticals Incorporated, priority 2006, dated 2012)

Target: c-MET (Homo sapiens, UniProt P08581)
Assay: Ki determination for the inhibition of c-MET (standard radiometric 33P-ATP kinase assay, polyE4Y substrate)
Type: biochemical
Conditions: 1.0 nM c-Met, 35 μM ATP, 0.5 mg/mL polyE4Y, 20 min; competitive tight-binding fit
Outline: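 Radiometric assay of 33P transfer from 33P-ATP (35 μM) to polyE4Y (0.5 mg/mL) by 1.0 nM c-Met in 100 mM HEPES pH 7.5, 10 mM MgCl2, 25 mM NaCl, 0.01% BSA, 1 mM DTT. TCA-quenched after 20 min, filter-captured, scintillation-counted; Ki fitted to a competitive tight-binding model.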

Chain of c-MET (P08581 25-1390): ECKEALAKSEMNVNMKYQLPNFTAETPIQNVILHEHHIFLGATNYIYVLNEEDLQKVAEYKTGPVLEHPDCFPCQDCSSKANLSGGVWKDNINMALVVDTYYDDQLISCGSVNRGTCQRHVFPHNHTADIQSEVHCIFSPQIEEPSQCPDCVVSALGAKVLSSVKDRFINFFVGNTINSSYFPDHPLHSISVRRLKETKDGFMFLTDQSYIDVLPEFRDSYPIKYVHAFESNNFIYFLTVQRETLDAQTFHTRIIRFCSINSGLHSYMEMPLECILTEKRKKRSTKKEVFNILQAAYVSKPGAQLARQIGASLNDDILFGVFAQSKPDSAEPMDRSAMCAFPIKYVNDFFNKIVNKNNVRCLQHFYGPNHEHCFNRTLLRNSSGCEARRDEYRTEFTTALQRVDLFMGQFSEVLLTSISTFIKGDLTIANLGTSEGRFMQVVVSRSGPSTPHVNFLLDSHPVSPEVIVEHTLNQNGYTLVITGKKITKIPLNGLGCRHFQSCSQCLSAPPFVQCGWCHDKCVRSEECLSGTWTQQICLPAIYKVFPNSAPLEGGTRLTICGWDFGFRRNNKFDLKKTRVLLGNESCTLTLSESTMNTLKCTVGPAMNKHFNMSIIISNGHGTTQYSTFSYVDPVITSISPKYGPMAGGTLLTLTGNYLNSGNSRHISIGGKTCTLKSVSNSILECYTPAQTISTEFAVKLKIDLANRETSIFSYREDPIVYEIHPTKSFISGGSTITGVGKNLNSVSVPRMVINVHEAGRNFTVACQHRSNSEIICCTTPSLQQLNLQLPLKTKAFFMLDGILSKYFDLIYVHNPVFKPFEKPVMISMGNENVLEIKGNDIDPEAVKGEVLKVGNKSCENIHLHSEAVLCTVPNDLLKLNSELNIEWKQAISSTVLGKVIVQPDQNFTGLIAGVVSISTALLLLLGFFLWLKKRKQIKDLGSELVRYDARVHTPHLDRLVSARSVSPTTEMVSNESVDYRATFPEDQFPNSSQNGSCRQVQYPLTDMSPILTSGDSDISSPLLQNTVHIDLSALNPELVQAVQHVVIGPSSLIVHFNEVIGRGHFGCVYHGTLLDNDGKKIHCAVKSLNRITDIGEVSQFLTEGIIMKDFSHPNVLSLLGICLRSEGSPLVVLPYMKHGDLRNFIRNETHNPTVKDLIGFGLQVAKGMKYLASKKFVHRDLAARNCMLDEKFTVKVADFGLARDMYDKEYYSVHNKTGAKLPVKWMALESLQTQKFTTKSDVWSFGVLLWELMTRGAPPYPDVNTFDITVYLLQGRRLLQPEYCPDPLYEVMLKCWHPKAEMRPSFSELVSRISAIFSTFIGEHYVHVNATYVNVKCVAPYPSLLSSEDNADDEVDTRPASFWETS

| Structure (SMILES) | Ki [nM] |
| --- | --- |
| CN1CCN(c2ccc(-c3cnc(N)c(-c4nnc(O)n4-c4cccc(F)c4F)n3)cc2)CC1 [I-A-17] | 100 to 1000 |
| Nc1ncc(-c2ccc3c(c2)CNCC3)cc1-c1nnnn1-c1cccc(F)c1F [I-A-456] | ≤ 100 |
| CC(C)(C#N)c1ccc(-c2cnc(N)c(-c3nnnn3-c3cccc(F)c3F)c2)cc1 [I-A-266] | ≤ 100 |
| CN(C)Cc1ccc(-c2cnc(N)c(-c3nnnn3-c3cc(F)ccc3Cl)c2)cc1 [I-A-592] | 100 to 1000 |
| CC(=O)Nc1ccc(-c2cnc(N)c(-c3nnnn3-c3cccc(F)c3C)c2)cc1 [I-A-574] | 100 to 1000 |
| Nc1ncc(-c2cnn(C3CCNCC3)c2)cc1-c1nnnn1-c1cc(Cl)ccc1F [I-A-635] | ≤ 100 |
| Nc1ccc(-c2cnc(N)c(-c3nncn3-c3cccc(F)c3F)n2)cc1 [I-A-10] | ≤ 100 |
| Nc1ncc(-c2ccc(NC(=O)CN3CCCC3)cc2)cc1-c1nnnn1-c1cccc(F)c1F [I-A-184] | ≤ 100 |
| Nc1ncc(-c2ccc(CN3CCCC3)cc2)cc1-c1nnnn1-c1c(F)ccc(F)c1Cl [I-A-620] | ≤ 100 |
| Nc1ncc(-c2cnn(C3CCNCC3)c2)cc1-c1nnnn1-c1cccc(Cl)c1Cl [I-A-371] | ≤ 100 |
| CC(=O)Nc1cccc(-c2cnc(N)c(-c3nnnn3-c3c(Cl)cccc3Cl)c2)c1 [I-A-611] | 100 to 1000 |
| Nc1ncc(-c2ccc(NC(=O)c3ccncc3)cc2)cc1-c1nnnn1-c1cccc(F)c1F [I-A-280] | ≤ 100 |
| Nc1ncc(-c2ccccc2)cc1-c1nncn1-c1cccc(Cl)c1Cl [I-A-74] | 100 to 1000 |
| Nc1ncc(-c2cnn(C3CCCNCC3)c2)cc1-c1nnnn1-c1cccc(Cl)c1Cl (stereo not shown) [I-A-429] | ≤ 100 |
| Nc1ncc(C2=CCN(C(=O)OC3CCOC3)CC2)cc1-c1nnnn1-c1cccc(F)c1F (stereo not shown) [I-A-520] | ≤ 100 |
| Cc1c(F)cccc1-n1nnnc1-c1cc(-c2ccc(CN3CCCC3)cc2)cnc1N [I-A-598] | 100 to 1000 |
| Nc1ccc(-c2cnc(N)c(-c3nnnn3-c3cccc(F)c3F)c2)cc1N [I-A-298] | ≤ 100 |
| CCCN1CCC(n2cc(-c3cnc(N)c(-c4nnnn4-c4cccc(Cl)c4F)c3)cn2)CC1 [I-A-470] | ≤ 100 |
| CC(=O)Nc1ccc(-c2cnc(N)c(-c3nnnn3-c3cc(Cl)ccc3F)c2)cc1 [I-A-582] | 100 to 1000 |
| Nc1ncc(-c2cnn(C3CC4CCC(C3)N4)c2)cc1-c1nnnn1-c1cccc(Cl)c1F (stereo not shown) [I-A-528] | ≤ 100 |
| Nc1ncc(-c2cccc([N+](=O)[O-])c2)cc1-c1nnnn1-c1cccc(F)c1F [I-A-239] | ≤ 100 |

| Structure (SMILES) | Ki [nM] |
| --- | --- |
| Cc1nnc(-c2cc(-c3ccc(CN(C)C)cc3)cnc2N)n1-c1cccc(F)c1Cl [I-A-389] | 100 to 1000 |
| Nc1ncc(-c2ccc(S(N)(=O)=O)s2)cc1-c1nnnn1-c1cccc(F)c1F [I-A-187] | ≤ 100 |
| Nc1ccc(-c2cnc(N)c(-c3nnnn3-c3cccc(F)c3F)c2)cc1[N+](=O)[O-] [I-A-312] | ≤ 100 |
| Nc1nc2ccc(-c3cnc(N)c(-c4nnnn4-c4cccc(F)c4F)c3)cc2s1 [I-A-308] | ≤ 100 |
| CC(=O)Nc1cccc(-c2cnc(N)c(-c3nnnn3-c3cccc(Cl)c3)c2)c1 [I-A-359] | 100 to 1000 |
| COc1ccc(F)cc1-n1nnnc1-c1cc(-c2ccc(CN3CCCC3)cc2)cnc1N [I-A-602] | 100 to 1000 |
| Nc1ncc(-c2ccc(CN3CCOCC3)cc2)nc1-c1nnc(O)n1-c1cccc(F)c1F [I-A-16] | 100 to 1000 |
| Nc1nc2cc(F)c(-c3cnc(N)c(-c4nnnn4-c4cccc(F)c4F)n3)cc2[nH]1 [I-A-52] | ≤ 100 |
| CCN1CCC(n2cc(-c3cnc(N)c(-c4nnnn4-c4cccc(F)c4F)c3)cn2)CC1 [I-A-435] | ≤ 100 |
| Nc1ncc(-c2ccc(CN3CCC[C@H]3CO)cc2)cc1-c1nnnn1-c1cccc(Cl)c1Cl [I-A-122] | ≤ 100 |
| Nc1ncc(-c2cnn([C@H]3CCCNC3)c2)cc1-c1nnnn1-c1cccc(Cl)c1Cl [I-A-409] | ≤ 100 |
| CN[C@@H](C)c1ccc(-c2cnc(N)c(-c3nnnn3-c3cccc(F)c3F)c2)cc1 [I-A-351] | ≤ 100 |
| CC(=O)N1CCC[C@@H]1C(=O)N1CC=C(c2cnc(N)c(-c3nnnn3-c3cccc(F)c3F)c2)CC1 [I-A-649] | 100 to 1000 |
| CCOc1cccc(-c2cnc(N)c(-c3nnnn3-c3cccc(F)c3F)c2)c1 [I-A-315] | 100 to 1000 |
| CCOc1cccc(-c2cnc(N)c(-c3nncn3-c3cccc(F)c3F)n2)c1 [I-A-31] | 100 to 1000 |
| CNc1ccc(-c2cnc(N)c(-c3nnnn3-c3cccc(F)c3F)c2)cc1C#N [I-A-341] | ≤ 100 |
| Nc1ncc(-c2ccc(CN3CCCCC3)cc2)cc1-c1nnnn1-c1cccc(F)c1F [I-A-134] | ≤ 100 |
| Nc1ncc(-c2cnn(C3CCNCC3)c2)cc1-c1nncn1-c1cccc(Cl)c1F [I-A-438] | ≤ 100 |
| Nc1ncc(-c2ccc(CN3CCCC3)cc2)cc1-c1nnnn1-c1cc(F)cc(F)c1 [I-A-603] | 100 to 1000 |
| Nc1ncc(-c2ccc(CN3CCC(O)CC3)cc2)cc1-c1nnnn1-c1cccc(Cl)c1Cl [I-A-97] | ≤ 100 |
| Cn1cc(-c2cccc(Cl)c2Cl)c(-c2cc(-c3cnn(C4CCNCC4)c3)cnc2N)n1 [I-B-22] | ≤ 100 |

| Structure (SMILES) | Ki [nM] |
| --- | --- |
| Nc1ncc(-c2ccc(CN3CCCC3)c([N+](=O)[O-])c2)cc1-c1nnnn1-c1cccc(F)c1F [I-A-340] | ≤ 100 |
| Nc1ncc(-c2ccccc2O)cc1-c1nnnn1-c1cccc(F)c1F [I-A-145] | ≤ 100 |
| Nc1ncc(-c2cnn(C3CCNCC3)c2)cc1-c1nnnn1-c1c(F)ccc(F)c1Cl [I-A-640] | ≤ 100 |
| CCC(=O)N1CC=C(c2cnc(N)c(-c3nnnn3-c3cccc(F)c3F)c2)CC1 [I-A-511] | ≤ 100 |
| Nc1ncc(-c2ccc(CN3CC[C@@H](O)C3)cc2)cc1-c1nnnn1-c1cccc(Cl)c1Cl [I-A-119] | ≤ 100 |
| Nc1ncc(C2=CCCN(C(=O)C(F)(F)F)CC2)cc1-c1nnnn1-c1cccc(F)c1F [I-A-647] | 100 to 1000 |
| CN(C)c1ccc(-c2cnc(N)c(-c3nncn3-c3cccc(Cl)c3Cl)c2)cc1 [I-A-72] | 100 to 1000 |
| Nc1nc2cc(-c3cnc(N)c(-c4nnnn4-c4cccc(F)c4F)c3)c(F)cc2[nH]1 [I-A-141] | ≤ 100 |
| COCCn1cc(-c2cnc(N)c(-c3nnnn3-c3cccc(F)c3F)c2)cn1 [I-A-367] | ≤ 100 |
| CC(=O)Nc1cccc(-c2cnc(N)c(-c3nnnn3-c3cc(F)ccc3Cl)c2)c1 [I-A-569] | 100 to 1000 |
| Nc1ncc(-c2cnn(C3CCNCC3)c2)cc1-c1nnnn1-c1c(F)ccc(Cl)c1F [I-A-382] | ≤ 100 |
| CCCN1CCC(n2cc(-c3cnc(N)c(-c4nnnn4-c4cccc(F)c4F)c3)nn2)CC1 [I-A-482] | ≤ 100 |
| CN1CCOc2cc(-c3cnc(N)c(-c4nnnn4-c4cccc(F)c4F)c3)ccc21 [I-A-289] | 100 to 1000 |
| Nc1ncc(-c2ccc3c(c2)CCNC3)cc1-c1nnnn1-c1cccc(F)c1F [I-A-509] | 100 to 1000 |
| CN(C)CCn1cc(-c2cnc(N)c(-c3nnnn3-c3cccc(F)c3F)c2)cn1 [I-A-406] | ≤ 100 |
| CCC(CC)C(=O)Nc1ccc(-c2cnc(N)c(-c3nnnn3-c3cccc(F)c3F)c2)cc1 [I-A-197] | ≤ 100 |
| Nc1ncc(-c2ccc(CN3CCOCC3)cc2)nc1-c1nncn1-c1cccc(F)c1F [I-A-5] | ≤ 100 |
| Nc1ncc(-c2cnn([C@@H]3CCNC3)c2)nc1-c1nnnn1-c1cccc(F)c1F [I-A-660] | ≤ 100 |
| Nc1ncc(-c2cnn(C3CCN(CC4CC4)CC3)c2)cc1-c1nnnn1-c1cccc(F)c1F [I-A-449] | ≤ 100 |
